Series [1] addresses T1, HDAC 1 (Homo sapiens, UniProt Q13547). Kind of series: HDAC 1 inhibition assay, fluorophore/quencher peptide substrate, no preincubation. In kind it is biochemical. The note with it: no preincubation of enzyme and compound; read-out: HDAC 1 inhibitory activity (IC50 [μM]) No preincubation. Here is the method:
(§1) HDAC inhibitory activity of the compound of Example 1 was measured by two types of assays in which HDAC 1 and 6 were used as a target molecule. The first assay was carried out without preincubation after addition of the enzyme. The test compound was suspended in and titrated in DMSO. It was then spotted into a 384-well test plate. The enzyme, HDAC 1 or 6, was diluted in assay buffer containing 25 mM Tris-HCl (pH 8.0), 137 mM NaCl, 2.7 mM KCl, and 0.01% Tween-20 and added to the pre-spotted compound. The peptide substrate containing a fluorophore/quencher pair was diluted in the same assay buffer and added to the compound/enzyme mix initiating the reaction. The reaction incubated at room temperature for about 45 minutes. A concentrated developer solution was diluted in the assay buffer, and added to the reaction. The reaction was incubated at room temperature for about 15 minutes and relative fluorescence was read on an instrument reader.

The target in series [2] is T1, HDAC 1. Put plainly: HDAC 1 inhibition assay, fluorophore/quencher peptide substrate, 3-hour preincubation. In kind it is biochemical. Particulars: about 3 hours preincubation of enzyme/compound mix at room temperature; read-out: HDAC 1 inhibitory activity (IC50 [μM]) 3-hour preincubation. Here is the method:
(§2) The second assay is similar to the first assay described above, except that preincubation is carried out for about 3 hours after the enzyme is introduced. The test compound was suspended in, and titrated in DMSO. It was then spotted into a 384-well test plate. The enzyme, HDAC 1 or 6, was diluted in the same assay buffer as used in the previous assay and added to the pre-spotted compound. The enzyme/compound mix was incubated at room temperature for about 3 hours. The peptide substrate containing a fluorophore/quencher pair was diluted in the assay buffer and added to the compound/enzyme mix initiating the reaction. The reaction incubated at room temperature for 45 minutes. A concentrated developer solution was diluted in the assay buffer, and added to the reaction. The reaction was incubated at room temperature for about 15 minutes and relative fluorescence was read on an instrument reader.

Series [3] has as its target T2, HDAC 6 (Homo sapiens, UniProt Q9UBN7).
T2 sequence (Q9UBN7 1-1215): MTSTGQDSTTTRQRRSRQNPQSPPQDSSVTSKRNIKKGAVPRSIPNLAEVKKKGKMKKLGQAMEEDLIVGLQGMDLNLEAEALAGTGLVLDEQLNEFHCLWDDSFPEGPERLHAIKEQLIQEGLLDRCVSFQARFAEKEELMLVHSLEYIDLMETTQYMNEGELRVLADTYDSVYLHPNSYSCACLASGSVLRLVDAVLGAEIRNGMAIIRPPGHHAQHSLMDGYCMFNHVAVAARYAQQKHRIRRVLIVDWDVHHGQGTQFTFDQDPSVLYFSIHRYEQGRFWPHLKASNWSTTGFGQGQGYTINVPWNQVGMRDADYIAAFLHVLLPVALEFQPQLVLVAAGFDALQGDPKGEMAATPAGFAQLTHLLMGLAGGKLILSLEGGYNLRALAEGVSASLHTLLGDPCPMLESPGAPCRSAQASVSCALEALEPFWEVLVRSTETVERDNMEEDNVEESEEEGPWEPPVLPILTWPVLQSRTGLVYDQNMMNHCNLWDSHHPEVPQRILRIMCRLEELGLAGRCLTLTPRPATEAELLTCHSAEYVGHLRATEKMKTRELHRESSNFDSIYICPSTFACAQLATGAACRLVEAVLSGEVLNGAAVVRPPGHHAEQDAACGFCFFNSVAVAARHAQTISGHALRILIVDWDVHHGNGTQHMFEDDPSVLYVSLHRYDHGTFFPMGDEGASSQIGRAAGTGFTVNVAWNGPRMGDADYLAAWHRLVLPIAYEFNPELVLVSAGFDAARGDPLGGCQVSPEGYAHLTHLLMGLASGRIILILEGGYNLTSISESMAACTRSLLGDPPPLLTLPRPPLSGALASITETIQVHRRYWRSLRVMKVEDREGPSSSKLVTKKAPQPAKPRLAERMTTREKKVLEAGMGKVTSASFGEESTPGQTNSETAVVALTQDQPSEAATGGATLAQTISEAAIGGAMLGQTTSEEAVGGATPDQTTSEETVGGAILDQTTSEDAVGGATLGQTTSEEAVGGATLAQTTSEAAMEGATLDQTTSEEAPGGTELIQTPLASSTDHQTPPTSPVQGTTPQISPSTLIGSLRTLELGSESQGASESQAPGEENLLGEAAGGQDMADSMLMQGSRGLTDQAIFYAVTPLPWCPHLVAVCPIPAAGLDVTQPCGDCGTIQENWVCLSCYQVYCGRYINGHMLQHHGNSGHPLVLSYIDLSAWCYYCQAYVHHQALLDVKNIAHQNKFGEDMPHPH
Put plainly: HDAC 6 inhibition assay, fluorophore/quencher peptide substrate, no preincubation. Particulars: no preincubation of enzyme and compound; read-out: HDAC 6 inhibitory activity (IC50 [μM]) No preincubation. In kind it is biochemical. Here is the method: as §1

Series [4] deals with T2, HDAC 6. Kind of series: HDAC 6 inhibition assay, fluorophore/quencher peptide substrate, 3-hour preincubation. The class given is biochemical. Particulars: about 3 hours preincubation of enzyme/compound mix at room temperature; read-out: HDAC 6 inhibitory activity (IC50 [μM]) 3-hour preincubation. Here is the method:
as §2

T1 sequence (Q13547 whole entry, species assumed): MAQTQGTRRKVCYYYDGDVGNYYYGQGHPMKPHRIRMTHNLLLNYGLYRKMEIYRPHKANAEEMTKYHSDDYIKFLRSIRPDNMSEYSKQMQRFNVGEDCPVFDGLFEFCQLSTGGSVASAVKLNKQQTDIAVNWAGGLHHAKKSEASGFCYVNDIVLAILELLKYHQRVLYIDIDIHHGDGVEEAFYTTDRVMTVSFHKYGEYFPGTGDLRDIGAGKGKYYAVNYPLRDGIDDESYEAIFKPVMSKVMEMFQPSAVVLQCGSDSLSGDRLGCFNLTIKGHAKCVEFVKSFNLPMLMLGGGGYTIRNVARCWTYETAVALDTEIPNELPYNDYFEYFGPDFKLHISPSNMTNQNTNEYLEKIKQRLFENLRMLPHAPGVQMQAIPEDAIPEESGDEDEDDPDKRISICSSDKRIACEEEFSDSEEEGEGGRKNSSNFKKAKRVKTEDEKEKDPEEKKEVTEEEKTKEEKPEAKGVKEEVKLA

A word on the IC50: it is the concentration needed to halve the response being measured. Broadly, the melting point is the temperature, or range, at which the solid turns liquid. For `CN(C)Cc1c(C(=O)NCCOc2ccc(C(=O)Nc3ccccc3N)cc2)oc2ccccc12` [Example 1, N-(2-aminophenyl)-4-[2-(3-dimethylaminomethylbenzofuran-2-ylcarbonylamino)-ethoxy]-benzamide], the melting point is 205.1 °C. In addition, the IC50 on HDAC 1 [1] is 0.03 µM. Also, the IC50 at HDAC 1 [2] was found to be 0.0033 µM. The concentration for half-maximal inhibition (IC50) on HDAC 6 [3] is greater than 50 µM. Further, the IC50 on HDAC 6 [4] is greater than 50 µM.
